According to patent publication US11028074B2, “CD73 inhibitors” (Eli Lilly and Company, priority 2018, dated 2021):

Key:
[1] = target: T1, human CD73 (Homo sapiens, UniProt P21589); experiment: Human CD73 Biochemical Assay; details: 2 μM AMP, 50 pM CD73 protein, 30 minutes at RT
T1 construct: human CD73 (amino acids 1-547); 6-His (C); made in house; host or cells: HEK293F (transient transfection)
T1 sequence (P21589 27-547): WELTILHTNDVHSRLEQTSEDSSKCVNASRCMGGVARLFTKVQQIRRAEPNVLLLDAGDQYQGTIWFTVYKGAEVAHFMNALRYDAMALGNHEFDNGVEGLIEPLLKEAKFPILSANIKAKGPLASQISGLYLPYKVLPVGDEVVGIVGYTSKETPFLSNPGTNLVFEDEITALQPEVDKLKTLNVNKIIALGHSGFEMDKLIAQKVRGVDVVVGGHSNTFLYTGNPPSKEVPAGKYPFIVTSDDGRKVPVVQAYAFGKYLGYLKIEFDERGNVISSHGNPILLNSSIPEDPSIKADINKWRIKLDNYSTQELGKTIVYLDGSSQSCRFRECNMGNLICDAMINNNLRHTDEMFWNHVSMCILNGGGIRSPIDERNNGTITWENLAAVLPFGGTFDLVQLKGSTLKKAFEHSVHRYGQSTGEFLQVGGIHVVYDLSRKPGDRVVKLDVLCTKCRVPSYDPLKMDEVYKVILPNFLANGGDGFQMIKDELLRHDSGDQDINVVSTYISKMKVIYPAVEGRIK
Method: An Agilent 300 RapidFire automated extraction system (Agilent, Santa Clara, Calif.) is used with three HPLC quaternary pumps, coupled to an Sciex 6500 triple quadrupole mass spectrometer (AB Sciex, Framingham, Mass.) with an electrospray ionization (ESI) interface source.
Solvent A, used for sample loading and washing, is 50 mM ammonium formate, pH 4.0 containing 5% (v/v) ACN. Solvent B, used for sample elution, is 0.3% formic acid+2% ammonium hydroxide in 70% ACN/30% MeOH. Samples are sequentially analyzed by aspirating 10 μL onto the collection loop under vacuum directly from multiwell plates.
Equip the triple quadrupole mass spectrometer with an electrospray ionization (ESI) source and monitor analytes using selected reaction monitoring (SRM) in positive mode (M+H)+. […] Calculate area ratio values for adenosine and adenosine monophosphate using 13C5 Adenosine and 15N5 AMP as internal standards, respectively.
The purpose of this assay is to identify and characterize inhibitors of CD73 enzyme activity. […] Adenosine- and adenosine ribose-^13C5 (internal standard) levels are determined utilizing mass spectrometry as described above. Use signal ratio (adenosine peak integration/adenosine internal standard peak integration) to quantitate each reaction. […] For screening purposes, test each compound at 50 μM in 1% DMSO.

[2] = target: T1, human CD73; experiment: Human CD73 Mechanism Assay; assay type: biochemical; details: varying inhibitor and AMP concentrations 0.023 to 50 μM, mixed-model fit
[3] = target: T2, CD73 (Homo sapiens, UniProt P21589); experiment: Calu6 Human Cell Assay; assay type: cell-based; details: Calu6 cells, 50 μM AMP premix, 60 minutes at room temperature
T2 sequence (P21589 27-549): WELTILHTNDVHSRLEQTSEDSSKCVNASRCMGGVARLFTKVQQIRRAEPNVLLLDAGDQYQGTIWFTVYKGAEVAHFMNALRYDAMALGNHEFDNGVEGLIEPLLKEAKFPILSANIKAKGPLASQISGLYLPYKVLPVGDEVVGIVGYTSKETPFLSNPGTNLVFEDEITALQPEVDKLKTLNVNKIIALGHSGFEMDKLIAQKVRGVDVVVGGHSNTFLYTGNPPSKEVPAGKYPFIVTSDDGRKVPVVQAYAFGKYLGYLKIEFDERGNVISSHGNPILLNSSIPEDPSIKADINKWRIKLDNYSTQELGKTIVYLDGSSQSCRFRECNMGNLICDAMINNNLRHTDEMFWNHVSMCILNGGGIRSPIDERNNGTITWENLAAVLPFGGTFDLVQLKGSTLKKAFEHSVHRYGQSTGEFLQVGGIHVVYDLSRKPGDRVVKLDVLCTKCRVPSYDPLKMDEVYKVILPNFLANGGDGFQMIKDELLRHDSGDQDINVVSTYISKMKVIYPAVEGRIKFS
Method: The purpose of this assay is to test compounds against CD73 in a cell-based assay. […] Plates are incubated at room temperature for 60 minutes.

[4] = target: T2, CD73; experiment: LC/MS Based Assay for Measuring CD73 Activity in Human Serum; assay type: biochemical; design: from tissue; host or cells: normal human serum; details: concentrations corrected with the fraction unbound, read-out: EC50, inhibition of CD73 activity in human serum
Method: Fresh normal human blood is centrifuged at 1,500 g for 15 minutes at room temperature, and the upper fraction containing serum is collected. […] After incubation on ice for 60 min, […] (50 uM) is added to each well in the plate, and the plate is incubated at room temperature for 15 min. The plate is then placed on dry ice with addition of 200 uL/well of 17.3 TCA followed by shaking at 26 fps for 3 min with a plate-shaking machine (Qiagen). The plate is then centrifuged at 2940 g for 20 min at 4° C. […] After further centrifugation at 2940 g for 20 min at 4° C., 200 ul/well of the supernatant is used for analysis of ^13C10-^15N5-adenosine, ^13C10-^15N5-inosine and ^15N5-hypoxanthine by LC/MS as described above. For EC50 calculations, the concentrations of the CD73 inhibitor in the serum are corrected with the fraction unbound (%) derived from in silico models or experimentally.

[5] = system: EG7 (lymphoma), MC38 (colon), AT-3 (breast) and B16F10 (melanoma) tumor cells; details: syngeneic mice injected subcutaneously with EG7, MC38, AT-3 and B16F10 tumor cells; cited from earlier work

Structure (SMILES)	IC50 [1] [nM]	mechanism of action (type of inhibition) [2]	IC50 [3] [nM]	EC50 [4] [nM]	tumor growth [5]
CC[C@H]1C[C@@H]1c1cc(-c2c[nH]c(=O)[nH]c2=O)nnc1C [Example 1, 5-[5-[(1S,2S)-2-Ethylcyclopropyl]-6-methyl-pyridazin-3-yl]-1H-pyrimidine-2,4-dione]	43	uncompetitive inhibitor	28	100	
Nc1ncnc2c1ncn2[C@@H]1O[C@H](COP(=O)(O)CP(=O)(O)O)[C@@H](O)[C@H]1O [α,β-methyleneadenosine 5′-diphosphate]					reduce tumor growth
